From patent US20260372303A1, “5-Fluoro-4-Imino-3-Methyl-1-Tosyl-3, 4-Dihydropyrimidin-2(1H) -One for Fungicide-Resistant Fungus” (priority 2022, published 2026)

Columns and labels:
Assay type in all cases: in vivo
[1] = system: Zymoseptoria tritici strain Zt 61; assay: In planta preventive efficacy on wheat cv. Alixan against Zymoseptoria tritici strain Zt 61; parameters: fungicide efficacy: concentration or dose not given beside the values; conditions: for Disease Severity Intensity: % of length of 2nd leaf blade, preventive 24 h; for AUDPC: control 1194.9
Description: (§1) A series of experiments were conducted to evaluate the efficacy of flumetylsulforim (ADF-16) for treating different strains of Zymoseptoria tritici in comparison with commercially available fungicides. Table 1 describes the Z. tritici strains used in this study and Table 2 describes the fungicides used in this study.
(§2) Winter wheat plants cv. Alixan (Limagrain) at the BBCH 12 growth stage were treated preventively with sterile distilled water (control), ADF-16, penthiopyrad, metconazole or tebuconazole at the rates described in Table 2 with a hand sprayer at 2 bars.
(§3) After treatment, wheat plants were left to dry at room temperature for 1 hour and then placed in a climatic chamber: temperature of 24 °C day/18 °C night-photoperiod of 16 h light/8 h dark and a relative humidity of 65%.
(§4) Untreated or treated whole wheat plants were inoculated 24-hours post-treatment with a calibrated pycnospore suspension of Z. tritici strains Zt StA, Zt 61, Zt 99, Zt 20, Zt 19-52, and Zt 38-02. Three replicates (pots) of 6 wheat plants each were used for each condition tested.
(§5) After inoculation, pots were transferred in a climatic chamber: temperature of 20 °C day/17 °C night—photoperiod of 16 h light/8 h dark and controlled relative humidity.
(§6) Disease assessments were carried out at 15 days post inoculation (dpi), 21 dpi and 28 dpi by measuring the length of the necrosis on the second leaf blade. The intensity of infection was then determined as a percentage of the total length of 2nd leaf blade.
(§7) The fungicide efficacies were determined from the Area Under the Disease Progress Curve (AUDPC) values and expressed as a percentage of the untreated control.
(§8) The AUDPC is a quantitative measure of disease intensity over time. The most commonly used method for estimating the AUDPC, the trapezoidal method, is performed by multiplying the average disease intensity between each pair of adjacent timepoints by the corresponding time interval and this for each time interval. The AUDPC is determined with the following formula by adding all of the trapezoids:
(§9) [formula] • yi=disease severity at the ith observation • ti=time (days) at the ith observation • N=total number of observations

[2] = system: Zymoseptoria tritici strain Zt 99; assay: In planta preventive efficacy on wheat cv. Alixan against Zymoseptoria tritici strain Zt 99; conditions: for Disease Severity Intensity: % of length of 2nd leaf blade, preventive 24 h; for AUDPC: control 1352.9
Description: as §1, §2, §3, §4, §5, §6, §7, §8, §9

[3] = system: Zymoseptoria tritici strain Zt 20; assay: In planta preventive efficacy on wheat cv. Alixan against Zymoseptoria tritici strain Zt 20; conditions: % of length of 2nd leaf blade, preventive 24 h
Description: as §1, §2, §3, §4, §5, §6, §7, §8, §9

[4] = system: Zymoseptoria tritici strain Zt StA; assay: In planta preventive efficacy on wheat cv. Alixan against Zymoseptoria tritici strain Zt StA (control strain, sensitive); conditions: for Disease Severity Intensity: % of length of 2nd leaf blade, preventive 24 h; for AUDPC: control 781.6
Description: as §1, §2, §3, §4, §5, §6, §7, §8, §9

[5] = system: Zymoseptoria tritici strain Zt 19-52; assay: In planta preventive efficacy on wheat cv. Alixan against Zymoseptoria tritici strain Zt 19-52; conditions: % of length of 2nd leaf blade, preventive 24 h
Description: as §1, §2, §3, §4, §5, §6, §7, §8, §9

[6] = system: Zymoseptoria tritici strain Zt 38-02; assay: In planta preventive efficacy on wheat cv. Alixan against Zymoseptoria tritici strain Zt 38-02; conditions: for Disease Severity Intensity: % of length of 2nd leaf blade, preventive 24 h; for AUDPC: control 1261.4
Description: as §1, §2, §3, §4, §5, §6, §7, §8, §9

[7] = 15 dpi, rate N (g a.i./ha): ADF-16 100, penthiopyrad 200, metconazole 90, tebuconazole 250, control also no disease
[8] = 15 dpi, rate N/2.5 (g a.i./ha): ADF-16 40, penthiopyrad 80, metconazole 36, tebuconazole 100, control also no disease
[9] = rate N (g a.i./ha): ADF-16 100, penthiopyrad 200, metconazole 90, tebuconazole 250
[10] = rate N/2.5 (g a.i./ha): ADF-16 40, penthiopyrad 80, metconazole 36, tebuconazole 100

## CC(C)(C)C(O)(CCc1ccc(Cl)cc1)Cn1cncn1 (stereo not drawn) [Tebuconazole]
[1]; [7]
  Disease Severity Intensity: No disease
[1]; [8]
  Disease Severity Intensity: No disease
[1]; 21 dpi, rate N (g a.i./ha): ADF-16 100, penthiopyrad 200, metconazole 90, tebuconazole 250, control 63.3
  Disease Severity Intensity: 1.5 +/− 0.9d %
[1]; 21 dpi, rate N/2.5 (g a.i./ha): ADF-16 40, penthiopyrad 80, metconazole 36, tebuconazole 100, control 63.3
  Disease Severity Intensity: 11.8 +/− 3.6c %
[1]; 28 dpi, rate N (g a.i./ha): ADF-16 100, penthiopyrad 200, metconazole 90, tebuconazole 250, control 88.1
  Disease Severity Intensity: 30.7 +/− 5.3d %
[1]; 28 dpi, rate N/2.5 (g a.i./ha): ADF-16 40, penthiopyrad 80, metconazole 36, tebuconazole 100, control 88.1
  Disease Severity Intensity: 54.3 +/− 6.2c %
[1]; higher application rates (N)
  fungicide efficacy: ≥ 85%
[1]; lower application rates (N/2.5)
  fungicide efficacy: ≤ 70%
[1]; [9]
  Efficacy (from AUDPC, percentage of the untreated control): 89.5%
  AUDPC: 125.1 ± 46.8 days
[1]; [10]
  Efficacy (from AUDPC, percentage of the untreated control): 70.3%
  AUDPC: 354.9 +/− 103.8bc
[2]; 15 dpi, rate N (g a.i./ha): ADF-16 100, penthiopyrad 200, metconazole 90, tebuconazole 250, control 47.9
  Disease Severity Intensity: 0.0 +/− 0.0d %
[2]; 15 dpi, rate N/2.5 (g a.i./ha): ADF-16 40, penthiopyrad 80, metconazole 36, tebuconazole 100, control 47.9
  Disease Severity Intensity: 0.0 +/− 0.0d %
[2]; 21 dpi, rate N (g a.i./ha): ADF-16 100, penthiopyrad 200, metconazole 90, tebuconazole 250, control 81.0
  Disease Severity Intensity: 1.5 +/− 0.8f %
[2]; 21 dpi, rate N/2.5 (g a.i./ha): ADF-16 40, penthiopyrad 80, metconazole 36, tebuconazole 100, control 81.0
  Disease Severity Intensity: 12.1 +/− 1.7e %
[2]; 28 dpi, rate N (g a.i./ha): ADF-16 100, penthiopyrad 200, metconazole 90, tebuconazole 250, control 92.2
  Disease Severity Intensity: 12.8 +/− 2.5d %
[2]; 28 dpi, rate N/2.5 (g a.i./ha): ADF-16 40, penthiopyrad 80, metconazole 36, tebuconazole 100, control 92.2
  Disease Severity Intensity: 58.7 +/− 4.6c %
[2]; [9]
  Efficacy (from AUDPC, percentage of the untreated control): 96.0%
  AUDPC: 54.0 ± 3.3 g
[2]; [10]
  Efficacy (from AUDPC, percentage of the untreated control): 79.0%
  AUDPC: 283.9 +/− 30.0f^
[3]; [7]
  Disease Severity Intensity: No disease
[3]; [8]
  Disease Severity Intensity: No disease
[3]; 21 dpi, rate N (g a.i./ha): ADF-16 100, penthiopyrad 200, metconazole 90, tebuconazole 250, control 77.2
  Disease Severity Intensity: 0.6 +/− 0.5de %
[3]; 21 dpi, rate N/2.5 (g a.i./ha): ADF-16 40, penthiopyrad 80, metconazole 36, tebuconazole 100, control 77.2
  Disease Severity Intensity: 4.6 +/− 1.3c %
[3]; 28 dpi, rate N (g a.i./ha): ADF-16 100, penthiopyrad 200, metconazole 90, tebuconazole 250, control 95.5
  Disease Severity Intensity: 17.1 +/− 1.9e %
[3]; 28 dpi, rate N/2.5 (g a.i./ha): ADF-16 40, penthiopyrad 80, metconazole 36, tebuconazole 100, control 95.5
  Disease Severity Intensity: 54.8 +/− 3.7c %
[4]; [7]
  Disease Severity Intensity: No disease
[4]; [8]
  Disease Severity Intensity: No disease
[4]; 21 dpi, rate N (g a.i./ha): ADF-16 100, penthiopyrad 200, metconazole 90, tebuconazole 250, control 36.5
  Disease Severity Intensity: 0.0 +/− 0.0b %
[4]; 21 dpi, rate N/2.5 (g a.i./ha): ADF-16 40, penthiopyrad 80, metconazole 36, tebuconazole 100, control 36.5
  Disease Severity Intensity: 0.0 +/− 0.0b %
[4]; 28 dpi, rate N (g a.i./ha): ADF-16 100, penthiopyrad 200, metconazole 90, tebuconazole 250, control 77.4
  Disease Severity Intensity: 0.0 +/− 0.0b %
[4]; 28 dpi, rate N/2.5 (g a.i./ha): ADF-16 40, penthiopyrad 80, metconazole 36, tebuconazole 100, control 77.4
  Disease Severity Intensity: 0.0 +/− 0.0b %
[4]; [9]
  Efficacy (from AUDPC, percentage of the untreated control): 100%
  AUDPC: 0.0 +/− 0.0b
[4]; [10]
  Efficacy (from AUDPC, percentage of the untreated control): 100%
  AUDPC: 0.0 +/− 0.0b
[5]; 15 dpi, rate N (g a.i./ha): ADF-16 100, penthiopyrad 200, metconazole 90, tebuconazole 250, control 22.0
  Disease Severity Intensity: 0.0 +/− 0.0b %
[5]; 15 dpi, rate N/2.5 (g a.i./ha): ADF-16 40, penthiopyrad 80, metconazole 36, tebuconazole 100, control 22.0
  Disease Severity Intensity: 0.0 +/− 0.0b %
[5]; 21 dpi, rate N (g a.i./ha): ADF-16 100, penthiopyrad 200, metconazole 90, tebuconazole 250, control 81.7
  Disease Severity Intensity: 0.2 +/− 0.2c %
[5]; 21 dpi, rate N/2.5 (g a.i./ha): ADF-16 40, penthiopyrad 80, metconazole 36, tebuconazole 100, control 81.7
  Disease Severity Intensity: 0.7 +/− 0.4bc %
[5]; 28 dpi, rate N (g a.i./ha): ADF-16 100, penthiopyrad 200, metconazole 90, tebuconazole 250, control 91.0
  Disease Severity Intensity: 7.9 +/− 2.2cd %
[5]; 28 dpi, rate N/2.5 (g a.i./ha): ADF-16 40, penthiopyrad 80, metconazole 36, tebuconazole 100, control 91.0
  Disease Severity Intensity: 13.1 +/− 2.3c %
[6]; 15 dpi, rate N (g a.i./ha): ADF-16 100, penthiopyrad 200, metconazole 90, tebuconazole 250, control 36.0
  Disease Severity Intensity: 0.0 +/− 0.0b %
[6]; 15 dpi, rate N/2.5 (g a.i./ha): ADF-16 40, penthiopyrad 80, metconazole 36, tebuconazole 100, control 36.0
  Disease Severity Intensity: 0.0 +/− 0.0b %
[6]; 21 dpi, rate N (g a.i./ha): ADF-16 100, penthiopyrad 200, metconazole 90, tebuconazole 250, control 84.3
  Disease Severity Intensity: 9.3 +/− 1.9e %
[6]; 21 dpi, rate N/2.5 (g a.i./ha): ADF-16 40, penthiopyrad 80, metconazole 36, tebuconazole 100, control 84.3
  Disease Severity Intensity: 62.2 +/− 4.5bc %
[6]; 28 dpi, rate N (g a.i./ha): ADF-16 100, penthiopyrad 200, metconazole 90, tebuconazole 250, control 95.7
  Disease Severity Intensity: 45.1 +/− 4.0d %
[6]; 28 dpi, rate N/2.5 (g a.i./ha): ADF-16 40, penthiopyrad 80, metconazole 36, tebuconazole 100, control 95.7
  Disease Severity Intensity: 93.3 +/− 0.9ab %
[6]; [9]
  Efficacy (from AUDPC, percentage of the untreated control): 82.7%
  AUDPC: 218.1 ± 3.5 days
[6]; [10]
  Efficacy (from AUDPC, percentage of the untreated control): 42.3%
  AUDPC: 728.1 +/− 31.6b
